Experimental data published in publication PMC3690532 (Structure (London, England : 1993), 2013).

Molecular target: T1, S. enterica MTAN (SeMTAN) (Salmonella choleraesuis, UniProt Q57T48)
T1 sequence (Q57T48 1-232): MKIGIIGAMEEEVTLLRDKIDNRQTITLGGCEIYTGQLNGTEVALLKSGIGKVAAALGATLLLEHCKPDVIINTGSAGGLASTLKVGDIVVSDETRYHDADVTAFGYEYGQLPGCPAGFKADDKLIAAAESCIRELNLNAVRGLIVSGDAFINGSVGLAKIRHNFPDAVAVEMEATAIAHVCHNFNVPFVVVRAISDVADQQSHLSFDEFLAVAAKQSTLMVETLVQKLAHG
Assay: slow-onset inhibition constant
Format: biochemical
Conditions: for ΔG (Gibbs free energy): generated from Ki* using ΔG = RT ln Ki*; for ΔΔG: methylthio-DADMe-ImmA as reference

SMILES | ΔG (Gibbs free energy) | ΔΔG | ΔG of binding higher when compared to MT-, DiEGT- and BuT-DADMe-ImmA (difference versus the three inhibitors)
Nc1ncnc2c(CN3CC(O)C(CSCCOCCO)C3)c[nH]c12 (stereo not drawn) [2-(2-hydroxyethoxy)ethylthio-DADMe-ImmA] | -15.4 ± 0.1 kcal/mol | 0 kcal/mol | –
Nc1ncnc2c(CN3CC(O)C(CSCCO)C3)c[nH]c12 (stereo not drawn) [2-Hydroxyethylthio-DADMe-ImmA] | -14.9 ± 0.1 kcal/mol | 0.5 kcal/mol | –
Nc1ncnc2c(CN3CC(O)C(CSCCCO)C3)c[nH]c12 (stereo not drawn) [3-Hydroxypropylthio-DADMe-ImmA] | -15.2 ± 0.2 kcal/mol | 0.2 kcal/mol | –
Nc1ncnc2c(CN3CC(O)C(CSCCCCO)C3)c[nH]c12 (stereo not drawn) [4-Hydroxybutylthio-DADMe-ImmA] | -14.8 ± 0.1 kcal/mol | 0.6 kcal/mol | –
CCCCSC[C@H]1CN(Cc2c[nH]c3c(N)ncnc23)C[C@@H]1O [Butylthio-DADMe-ImmA, reference compound] | -16.1 ± 0.2 kcal/mol | -0.7 kcal/mol | –
Nc1ncnc2c(CN3C[C@H](CSCC[C@H](N)C(=O)O)[C@@H](O)C3)c[nH]c12 [Homocysteine-DADMe-ImmA, reference compound] | -13.9 ± 0.1 kcal/mol | 1.5 kcal/mol | 1.5 to 2.2 kcal/mol
CSC[C@H]1CN(Cc2c[nH]c3c(N)ncnc23)C[C@@H]1O [Methylthio-DADMe-ImmA, reference compound] | -15.4 ± 0.1 kcal/mol | 0 kcal/mol | –
